Experimental findings from PubChem BioAssay AID1745844 (Carcinogenic Potency Database (CPDB), 2022) are described below.

Active and inactive are the calls of the source. How the calls were made is not given here.

In the series the test system is rodent lifetime carcinogenesis bioassay, tumor incidence TD50. Kind of series: chronic cancer bioassays in animals – CPDB, compiled studies (AID 1745844).

Take `CN(C)C(=O)NC1CC2CC1C1CCCC21` (stereo not given): the carcinogen call runs as follows: (mouse, strain B6AKF1, females, oral dosing, site: any site (literature study), lesion: several types, types named in the paper, dosed 76 weeks, study length 76 weeks) “negative (inactive)”; (mouse, strain B6AKF1, females, oral dosing, site: liver, lesion: hepatoma, dosed 76 weeks, study length 76 weeks) “negative (inactive)”; (mouse, strain B6AKF1, females, oral dosing, site: lung, lesion: adenoma, dosed 76 weeks, study length 76 weeks) “negative (inactive)”; (mouse, strain B6AKF1, males, oral dosing, site: any site (literature study), lesion: several types, types named in the paper, dosed 76 weeks, study length 76 weeks) “negative (inactive)”; (mouse, strain B6AKF1, males, oral dosing, site: liver, lesion: hepatoma, dosed 76 weeks, study length 76 weeks) “negative (inactive)”; (mouse, strain B6AKF1, males, oral dosing, site: lung, lesion: adenoma, dosed 76 weeks, study length 76 weeks) “negative (inactive)”. The carcinogen call runs as follows: (mouse, strain B6C3F1, females, oral dosing, site: liver, lesion: hepatoma, dosed 76 weeks, study length 76 weeks) “negative (inactive)”; (mouse, strain B6C3F1, males, oral dosing, site: lung, lesion: several types, types named in the paper, dosed 76 weeks, study length 76 weeks) “negative (inactive)”. For the same molecule, the TD50 (commonly the dose at which the toxic effect under study appears in half of the subjects) was 1230 mg/kg/day (inactive) (mouse, strain B6C3F1, females, oral dosing, site: any site (literature study), lesion: several types, types named in the paper, dosed 76 weeks, study length 76 weeks); 1230 mg/kg/day (inactive) (mouse, strain B6C3F1, females, oral dosing, site: lung, lesion: adenoma, dosed 76 weeks, study length 76 weeks); 259 mg/kg/day (inactive) (mouse, strain B6C3F1, males, oral dosing, site: any site (literature study), lesion: several types, types named in the paper, dosed 76 weeks, study length 76 weeks); 359 mg/kg/day (inactive) (mouse, strain B6C3F1, males, oral dosing, site: liver, lesion: hepatoma, dosed 76 weeks, study length 76 weeks).
In the case of `[N]=O`, the carcinogen call (mouse, strain ICR/Jcl, females, inhaled, site: lung, lesion: adenoma, dosed 126 weeks, study length 126 weeks) was “negative (inactive)”.
For `Cc1c(C)c2c(c(C)c1O)CCC(C)(CCCC(C)CCCC(C)CCCC(C)C)O2` (stereo not given), the carcinogen call (rat, strain F344/DuCrj, females, in feed, site: colon, lesion: one or several types, types not named, dosed 54 weeks, study length 54 weeks) is “negative (inactive)”; the carcinogen call (rat, strain F344/DuCrj, females, in feed, site: mammary gland, lesion: one or several types, types not named, dosed 54 weeks, study length 54 weeks) was “negative (inactive)”; the carcinogen call (rat, strain F344/DuCrj, males, in feed, site: esophagus, lesion: one or several types, types not named, dosed 52 weeks, study length 52 weeks) was “negative (inactive)”; the carcinogen call (rat, strain F344/DuCrj, males, in feed, site: forestomach, lesion: one or several types, types not named, dosed 52 weeks, study length 52 weeks) is “negative (inactive)”; the carcinogen call (rat, strain F344/DuCrj, males, in feed, site: liver, lesion: one or several types, types not named, dosed 52 weeks, study length 52 weeks) was “negative (inactive)”.
`N#Cc1ccc(C2CCCc3cncn32)cc1` (stereo not given): the carcinogen call reads like this: (rat, strain Sprague-Dawley, females, by gavage, site: any site (literature study), lesion: several types, types named in the paper, dosed 104 weeks, study length 104 weeks) “negative (inactive)”; (rat, strain Sprague-Dawley, females, by gavage, site: liver, lesion: several types, types named in the paper, dosed 104 weeks, study length 104 weeks) “negative (inactive)”; (rat, strain Sprague-Dawley, females, by gavage, site: mammary gland, lesion: several types, types named in the paper, dosed 104 weeks, study length 104 weeks) “negative (inactive)”; (rat, strain Sprague-Dawley, males, by gavage, site: liver, lesion: several types, types named in the paper, dosed 104 weeks, study length 104 weeks) “negative (inactive)”.
Take `COc1cc(C=NNC(=O)c2ccncc2)ccc1O`: the TD50 runs as follows: (mouse, strain Not specified, both sexes, by gavage, site: any site (literature study), lesion: several types, types named in the paper, dosed 52 weeks, study length 52 weeks) 27.4 mg/kg/day; (mouse, strain Not specified, both sexes, by gavage, site: lung, lesion: adenocarcinoma, dosed 52 weeks, study length 52 weeks) 45 mg/kg/day; (mouse, strain Not specified, both sexes, by gavage, site: mammary gland, lesion: adenocarcinoma, dosed 52 weeks, study length 52 weeks) 86.6 mg/kg/day.
